{
  "source": "patent EP0415999B1",
  "about": "“COMPOSITIONS HAVING USE AS TREATMENT OF PSORIASIS AND NEUROP[…]” (THE UNITED STATES OF AMERICA as represented by the …, priority 1988, dated 1998)",
  "test_system": "volunteers who tested negative or HIV antibodies",
  "experiment": "Overall neuropsychologic and clinical observations during seven-day peptide administration",
  "type": "in vivo, human",
  "description": "As indicated in the Table, symptoms of substance abuse, childhood dyslexia and depression were ameliorated. The peptide having the formula: [formula] was given at dosage of 0.033 mg/kg/da to 0.133 mg/kg/da for seven days. As indicated in the Table, the unexpected effects observed in these volunteers who tested negative or HIV antibodies were the following: • 1. […] This effect maintained for one month of follow-up.",
  "data": [
    {"smiles": "C[C@@H](N)C(=O)N[C@@H](CO)C(=O)N[C@H](C(=O)N[C@H](C(=O)N[C@H](C(=O)N[C@@H](CC(N)=O)C(=O)N[C@@H](Cc1ccc(O)cc1)C(=O)N[C@H](C(N)=O)[C@@H](C)O)[C@@H](C)O)[C@@H](C)O)[C@@H](C)O", "note": "[Peptide T]", "values": [
      {"measurement": "scores on memory and attention components of standard neuropsychologic tests", "setting": "0.033 mg/kg/da to 0.133 mg/kg/da for seven days, remitted after Peptide T was discontinued", "value": "Incremental scores"},
      {"measurement": "physical activity", "setting": "all subjects, while on drug, did not continue after drug discontinuance", "value": "increases in physical activity"},
      {"measurement": "fatigue, energy and vigor (reported by subjects)", "setting": "all subjects, effect abated off drug", "value": "decreased fatigue and increased energy and vigor"},
      {"measurement": "mood scores on depression scales", "setting": "two research volunteers with prior histories of depression, effect maintained for one month of follow-up", "value": "Improved mood scores"}
    ]}
  ]
}
